Data reported in the supplement of paper PMC8967900.

Columns and labels:
Assay in all cases: selective drug sensitivity score (sDSS, relative to normal bone marrow) (sDSS (score)); higher = more potent and effective on the cell line relative to normal bone marrow cells
Conditions in all cases: 72 h
[1] = system: KASUMI-10
[2] = system: TMD5
[3] = system: NALL-1
[4] = system: HAL-01
[5] = system: MHH-CALL-4
[6] = system: COG-LL-394h
[7] = system: HPB-ALL
[8] = system: COG-LL-402h
[9] = system: JURKAT
[10] = system: SUP-B15
[11] = system: COG-LL-317
[12] = system: KARPAS-45
[13] = system: TANOUE
[14] = system: RPMI-8402
[15] = system: LC4-1
[16] = system: COG-LL-332h
[17] = system: 697
[18] = system: KASUMI-9
[19] = system: DND-41
[20] = system: MHH-CALL-2
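Note: ALL cell lines in 384-well plates, five doses spanning 10,000-fold, each plate scaled between vehicle and 100 µmol/L benzalkonium chloride controls, sDSS an adapted area-under-curve metric.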

SMILES | selective drug sensitivity score [1] | selective drug sensitivity score [2] | selective drug sensitivity score [3] | selective drug sensitivity score [4] | selective drug sensitivity score [5] | selective drug sensitivity score [6] | selective drug sensitivity score [7] | selective drug sensitivity score [8] | selective drug sensitivity score [9] | selective drug sensitivity score [10] | selective drug sensitivity score [11] | selective drug sensitivity score [12] | selective drug sensitivity score [13] | selective drug sensitivity score [14] | selective drug sensitivity score [15] | selective drug sensitivity score [16] | selective drug sensitivity score [17] | selective drug sensitivity score [18] | selective drug sensitivity score [19] | selective drug sensitivity score [20]
CC(C)Oc1ccc(C(=O)N[C@H](CNC(=O)CN(C)C)Cc2ccc(-c3cn4cccc([C@H](C)O)c4n3)cc2)cc1Cl (top concentration 10000 nM) | 6.88 | 5.18 | 9.88 | 1.98 | 0.78 | -0.72 | 8.18 | 10.6 | 13.6 | 14.8 | 16.6 | 7.48 | -9.32 | 9.28 | 8.28 | 16.5 | 19.9 | 10.3 | -2.62 | 8.58
CCn1c(-c2nonc2N)nc2cnc(Oc3cccc(NC(=O)c4ccc(OCCN5CCOCC5)cc4)c3)cc21 (top concentration 10000 nM) | -2.74 | 6.36 | 8.46 | 9.96 | 10.4 | 1.56 | -1.14 | 7.66 | 3.76 | 19.3 | 7.46 | 15.2 | -5.44 | 7.66 | 17 | 11 | 18.3 | 11.6 | 0.86 | 8.36
CC(C)(C#N)c1cc(Cn2cncn2)cc(C(C)(C)C#N)c1 [Anastrozole] (top concentration 10000 nM) | 0 | 0.6 | 0 | 0 | 0 | 0 | 0.2 | 0 | 0 | 0 | 0 | 0 | 0 | 0 | 0 | 0 | 0 | 0 | 2.9 | 0
Cc1sc2c(c1C)C(c1ccc(Cl)cc1)=N[C@@H](CC(=O)Nc1ccc(O)cc1)c1nnc(C)n1-2 [Birabresib] (top concentration 10000 nM) | 7.02 | -9.18 | -3.58 | -0.78 | 6.02 | -0.08 | -0.08 | 7.12 | -1.98 | 3.42 | 9.12 | 9.42 | -4.78 | 3.72 | 4.92 | -4.28 | 10.6 | 13.1 | 0.92 | 7.02
Nc1ccn([C@@H]2O[C@H](CO)[C@@H](O)[C@@H]2O)c(=O)n1 [Cytarabine] (top concentration 10000 nM) | 1.6 | -10 | 10.6 | 21.8 | 5.4 | -10 | 2.7 | 26.9 | 17.9 | 27.7 | 27.2 | -7.7 | -8.9 | 18.6 | 21 | 25.5 | 27.7 | 22.7 | 16.3 | 19.6
COc1cccc2c1C(=O)c1c(O)c3c(c(O)c1C2=O)C[C@@](O)(C(C)=O)C[C@@H]3O[C@H]1C[C@H](N)[C@H](O)[C@H](C)O1 [Daunorubicin] (top concentration 1000 nM) | 9.06 | 1.86 | -4.04 | -2.24 | 7.46 | 8.66 | -1.64 | 15.8 | 2.96 | 11.9 | 14.8 | -0.34 | -9.54 | 8.96 | 6.36 | 12.1 | 9.06 | 7.06 | -0.54 | 6.16
Nc1ncn([C@H]2C[C@H](O)[C@@H](CO)O2)c(=O)n1 [Decitabine] (top concentration 10000 nM) | -3.06 | -5.56 | -5.96 | -1.76 | 0.54 | -6.06 | -0.66 | 3.34 | 4.04 | 16.5 | 14.9 | -6.06 | -6.06 | 1.24 | -0.06 | 4.34 | 17.5 | -0.16 | -4.66 | 1.04
CCN(CC)C(=S)SSC(=S)N(CC)CC [Disulfiram(+CuCl2)] (top concentration 50000 nM) | -1.52 | -2.12 | 16.1 | 16.3 | 3.38 | -1.02 | 15.8 | -0.32 | -2.12 | 10.7 | -2.12 | -2.12 | -1.62 | -2.12 | 7.38 | -0.52 | -1.02 | 2.28 | -2.12 | 8.58
Nc1nc(F)nc2c1ncn2[C@@H]1O[C@H](CO)[C@@H](O)[C@@H]1O [Fludarabine] (top concentration 10000 nM) | -0.8 | -10.6 | 2.3 | 4 | 8.3 | -10.6 | 0.3 | 8 | -5.5 | 9.4 | 3.3 | -10.3 | -10.3 | -3.6 | 6 | 0.6 | 7.3 | 6 | 5.5 | 8
Nc1nc(OCc2cc(Br)cs2)c2[nH]cnc2n1 [Lomeguatrib] (top concentration 10000 nM) | 0 | 0 | 0 | 0 | 0 | 0 | 0.1 | 0 | 0 | 0 | 0 | 0 | 0 | 0 | 0.8 | 0 | 0.4 | 0 | 0 | 0
Cc1cc(OCc2nnc(SC3CCCC3)n2-c2cccnc2)ccc1-c1ccc(S(C)(=O)=O)cc1 [NMS-873] (top concentration 10000 nM) | -0.14 | 2.26 | 3.26 | 1.06 | 6.96 | 14.6 | 6.26 | 2.56 | 26.5 | 10.6 | 0.16 | 11.4 | 19.4 | 21.3 | 4.76 | 5.86 | 14.1 | 1.26 | 4.46 | 6.76
COC(=O)c1ccc2c(c1)NC(=O)/C2=C(\Nc1ccc(N(C)C(=O)CN2CCN(C)CC2)cc1)c1ccccc1 [Nintedanib] (top concentration 10000 nM) | 14.1 | 0.84 | -2.76 | 3.34 | -1.66 | 2.14 | 0.64 | 5.14 | -4.86 | 9.44 | -1.76 | 0.54 | -6.36 | 1.14 | -4.36 | 4.44 | 0.84 | -1.26 | -3.16 | 1.04
O=C(c1cc(Cc2n[nH]c(=O)c3ccccc23)ccc1F)N1CCN(C(=O)C2CC2)CC1 [Olaparib] (top concentration 10000 nM) | 2.88 | 4.48 | 1.28 | 4.88 | 8.68 | -1.32 | -1.32 | 4.38 | 1.58 | 13.1 | 13 | 0.38 | -3.42 | -0.02 | 2.68 | 4.98 | 6.78 | 4.98 | 1.28 | 8.88
O=C(O)C(=O)O.[NH-][C@@H]1CCCC[C@H]1[NH-].[Pt+2] [Oxaliplatin] (top concentration 100000 nM) | 14.2 | -0.08 | 2.92 | 15.3 | 12.1 | 8.32 | -0.78 | 12.9 | 5.52 | 16.6 | 17.2 | -0.08 | -6.98 | 8.02 | 10.6 | 14.9 | 16 | 13.6 | 1.42 | 13.9
CS(=O)(=O)N1CCN(Cc2cc3nc(-c4cccc5[nH]ncc45)nc(N4CCOCC4)c3s2)CC1 [Pictilisib] (top concentration 10000 nM) | 3.96 | 2.56 | -0.64 | 14.4 | 9.26 | -0.74 | -0.04 | 12.9 | 0.36 | 0.16 | -0.94 | 6.36 | -5.84 | 6.26 | 0.16 | 0.46 | 7.36 | 10.1 | -1.44 | 12.3
CCOC(=O)C1=CCCC[C@H]1S(=O)(=O)Nc1ccc(F)cc1Cl [Resatorvid] (top concentration 10000 nM) | 0 | 0 | 0 | 0 | 0 | 0 | 0 | 0.4 | 0 | 0 | 0 | 0 | 0 | 0 | 0 | 0 | 0 | 0 | 0 | 0
CO[C@H]1C[C@@H]2CC[C@@H](C)[C@@](O)(O2)C(=O)C(=O)N2CCCC[C@H]2C(=O)O[C@H]([C@H](C)C[C@@H]2CC[C@@H](OP(C)(C)=O)[C@H](OC)C2)CC(=O)[C@H](C)/C=C(\C)[C@@H](O)[C@@H](OC)C(=O)[C@H](C)C[C@H](C)/C=C/C=C/C=C/1C [Ridaforolimus] (top concentration 100 nM) | -4.84 | -4.84 | -4.44 | -4.34 | -4.44 | -4.84 | -4.84 | 4.66 | 0.26 | 8.96 | 2.76 | 1.56 | -4.84 | -1.44 | 4.46 | 7.36 | 12.5 | 6.96 | -2.54 | -2.24
CCc1c2c(nc3ccc(O)cc13)-c1cc3c(c(=O)n1C2)COC(=O)[C@]3(O)CC [SN-38] (top concentration 10000 nM) | 18.9 | 18.3 | 24.4 | 21.8 | 19.7 | 13.8 | 11.2 | 21.1 | 22.7 | 26.9 | 27.6 | 3.98 | -5.52 | 25.4 | 27.1 | 27.6 | 22.7 | 23.5 | 25.5 | 25.2
